Measured values: ChEMBL document CHEMBL4651402, “Screening of ~5500 FDA-approved drugs and clinical candidates for anti-SARS-CoV-2 activity” (2021)
pIC50: −log10 of the molar value.

Key:
SARS-CoV-2 [1] = assay: microbe, parasite or virus in culture; assay type: functional, organism-based, Chlorocebus sabaeus, Vero C1008; settings: Severe acute respiratory syndrome coronavirus 2, Vero C1008, 48 h; for pIC50: read-out: IC50; for IC50: read-out: pIC50 (converted)
SARS-CoV-2 [2] = assay: microbe, parasite or virus in culture; settings: Severe acute respiratory syndrome coronavirus 2, Vero C1008, 48 h; for IC50: read-out: pIC50 (converted)
in vitro = settings: chlorocebus sabaeus, Vero E6 (Vero C1008) cells

| Structure (SMILES) | pIC50 (SARS-CoV-2 [1]) | IC50 (SARS-CoV-2 [1]) | pIC50 (SARS-CoV-2 [2]) | IC50 (SARS-CoV-2 [2]) | CC50 at 48 h (in vitro; CC50) | CC50 at 48 h (in vitro; pCC50) |
| --- | --- | --- | --- | --- | --- | --- |
| CN(C)CCON=C1c2ccccc2CCc2ccccc21 [NOXIPTILINE] | < 4.00 | > 100 µM | 4.85 | 14.1 µM | 77.6 µM | 77.6 µM |
| Cc1[nH]c(/C=C2\C(=O)Nc3ccccc32)c(C)c1CCC(=O)O [ORANTINIB] | < 4.60 | > 25.1 µM | ~5.75 | ~1.78 µM | > 25.1 µM | > 25.1 µM |
| C=CC(=O)Nc1cc(Nc2nccc(-c3cn(C)c4ccccc34)n2)c(OC)cc1N(C)CCN(C)C [OSIMERTINIB] | < 4.00 | > 100 µM | < 4.00 | > 100 µM | 3.09 µM | 3.09 µM |
| CNCC(O)CC12CCC(c3ccccc31)c1ccccc12 (stereo not given) [OXAPROTILINE] | < 4.00 | > 100 µM | < 4.00 | > 100 µM | 28.2 µM | 28.2 µM |
| O=C(O)CCc1nc(-c2ccccc2)c(-c2ccccc2)o1 [OXAPROZIN] | < 4.30 | > 50.1 µM | 4.93 | 11.7 µM | > 50.1 µM | > 50.1 µM |
| O=c1[nH]c2ccccc2n1CCCN1CCN(C(c2ccccc2)c2ccccc2)CC1 [OXATOMIDE] | < 4.00 | > 100 µM | < 4.00 | > 100 µM | ~12.6 µM | ~12.6 µM |
| CN(C(=O)CN(CCO)CC(=O)N(C)C(C)(C)Cc1ccccc1)C(C)(C)Cc1ccccc1 [OXETHAZAINE] | < 4.00 | > 100 µM | 4.73 | 18.6 µM | 26.3 µM | 26.3 µM |
| N=C(N)c1ccc(C=C2c3ccccc3-c3ccccc32)cc1 [PARANYLINE] | < 4.00 | > 100 µM | 5.46 | 3.47 µM | 2.92 µM | 2.88 µM |
| Fc1ccc([C@@H]2CCNC[C@H]2COc2ccc3c(c2)OCO3)cc1 [PAROXETINE] | < 4.00 | > 100 µM | 4.82 | 15.1 µM | 16.6 µM | 16.6 µM |
| CC(C)(C)NC[C@H](O)COc1ccccc1C1CCCC1 [PENBUTOLOL] | 4.70 | 20 µM | 4.82 | 15.1 µM | 29.5 µM | 29.5 µM |
| OC1(c2ccc(Cl)c(C(F)(F)F)c2)CCN(CCCC(c2ccc(F)cc2)c2ccc(F)cc2)CC1 [PENFLURIDOL] | < 4.00 | > 100 µM | < 4.00 | > 100 µM | 3.59 µM | 3.55 µM |
| CN1CCN(CCCN2c3ccccc3Sc3ccccc32)CC1 [PERAZINE] | < 4.00 | > 100 µM | 4.85 | 13.8 µM | 14.6 µM | 14.5 µM |
| N#Cc1ccc2c(c1)N(CCCN1CCC(O)CC1)c1ccccc1S2 [PERICIAZINE] | < 4.00 | > 100 µM | < 4.70 | > 20 µM | 12.7 µM | 12.6 µM |
| CN1CCC(=C2c3ccccc3Sc3ccccc32)CC1 [PIMETHIXENE] | < 4.00 | > 100 µM | < 4.00 | > 100 µM | 25.7 µM | 25.7 µM |
| Cc1c(-c2ccc(O)cc2)n(Cc2ccc(OCCN3CCCCC3)cc2)c2ccc(O)cc12 [PIPENDOXIFENE] | < 5.20 | > 6.31 µM | 5.44 | 3.63 µM | 4.62 µM | 4.57 µM |
